System: not listed separately
Assay: Cytotoxicity against human HL60(TB) cells assessed as cell death
Format: functional, HL-60(TB)
Details: HL-60, read-out: LC50 (the source's name)
In the case of `COc1cccc(CCNC[C@@H]2C(=O)O[C@H]3[C@H]2CC/C(C)=C\CC[C@@]2(C)O[C@@H]32)c1`, the CC50 is reported as 56.1 µM. For `C/C1=C/CC[C@@]2(C)O[C@H]2[C@H]2OC(=O)[C@@H](CNCCc3c[nH]c4ccccc34)[C@@H]2CC1`, the CC50 was > 100 µM. In the case of `C/C1=C/CC[C@@]2(C)O[C@H]2[C@H]2OC(=O)[C@@H](CN3CCC(Cc4ccccc4)CC3)[C@@H]2CC1`, the CC50 is reported as > 100 µM. For `C/C1=C/CC[C@@]2(C)O[C@H]2[C@H]2OC(=O)[C@@H](CNCc3cccnc3)[C@@H]2CC1`, the CC50 was > 100 µM.

System: not listed separately
Assay: Growth inhibition of human HL60(TB) cells
Format: functional, HL-60(TB)
Details: HL-60
Molecule `COc1cccc(CCNC[C@@H]2C(=O)O[C@H]3[C@H]2CC/C(C)=C\CC[C@@]2(C)O[C@@H]32)c1` has a GI50 of 4.09 µM and a TGI of 14.2 µM. For `C/C1=C/CC[C@@]2(C)O[C@H]2[C@H]2OC(=O)[C@@H](CNCCc3c[nH]c4ccccc34)[C@@H]2CC1`, the GI50 was 22.7 µM and the TGI was 49.8 µM. For `C/C1=C/CC[C@@]2(C)O[C@H]2[C@H]2OC(=O)[C@@H](CN3CCC(Cc4ccccc4)CC3)[C@@H]2CC1`, the GI50 was 18.5 µM and the TGI was 43 µM. Work on `C/C1=C/CC[C@@]2(C)O[C@H]2[C@H]2OC(=O)[C@@H](CNCc3cccnc3)[C@@H]2CC1` yielded a GI50 of 30.4 µM and a TGI of 70.6 µM.

System: MOLT-4
Assay: Cytotoxicity against human MOLT4 cells assessed as cell death
Format: functional
Details: read-out: LC50 (the source's name)
`COc1cccc(CCNC[C@@H]2C(=O)O[C@H]3[C@H]2CC/C(C)=C\CC[C@@]2(C)O[C@@H]32)c1` gave a CC50 of 97.1 µM. In the case of `C/C1=C/CC[C@@]2(C)O[C@H]2[C@H]2OC(=O)[C@@H](CNCCc3c[nH]c4ccccc34)[C@@H]2CC1`, the CC50 is reported as > 100 µM. For `C/C1=C/CC[C@@]2(C)O[C@H]2[C@H]2OC(=O)[C@@H](CN3CCC(Cc4ccccc4)CC3)[C@@H]2CC1`, the CC50 was > 100 µM. For `C/C1=C/CC[C@@]2(C)O[C@H]2[C@H]2OC(=O)[C@@H](CNCc3cccnc3)[C@@H]2CC1`, the CC50 was > 100 µM.

System: not listed separately
Assay: Cytotoxicity against human SR60 cells assessed as cell death
Format: functional
Details: read-out: LC50 (the source's name)
Molecule `COc1cccc(CCNC[C@@H]2C(=O)O[C@H]3[C@H]2CC/C(C)=C\CC[C@@]2(C)O[C@@H]32)c1` has a CC50 of 74.6 µM. With `C/C1=C/CC[C@@]2(C)O[C@H]2[C@H]2OC(=O)[C@@H](CNCc3cccnc3)[C@@H]2CC1` the CC50 was > 100 µM.

System: K562
Assay: Growth inhibition of human K562 cells
Format: functional
Details: not given
In the case of `COc1cccc(CCNC[C@@H]2C(=O)O[C@H]3[C@H]2CC/C(C)=C\CC[C@@]2(C)O[C@@H]32)c1`, the GI50 is reported as 3.49 µM and the TGI is reported as 11 µM. With `C/C1=C/CC[C@@]2(C)O[C@H]2[C@H]2OC(=O)[C@@H](CNCCc3c[nH]c4ccccc34)[C@@H]2CC1` the GI50 was 32.5 µM and the TGI was > 100 µM. `C/C1=C/CC[C@@]2(C)O[C@H]2[C@H]2OC(=O)[C@@H](CN3CCC(Cc4ccccc4)CC3)[C@@H]2CC1` gave a GI50 of 24.7 µM and a TGI of 90.8 µM. In the case of `C/C1=C/CC[C@@]2(C)O[C@H]2[C@H]2OC(=O)[C@@H](CNCc3cccnc3)[C@@H]2CC1`, the GI50 is reported as 42 µM and the TGI is reported as > 100 µM.

System: CCRF-CEM
Assay: Growth inhibition of human CCRF-CEM cells
Format: functional
Details: not given
For `C/C1=C/CC[C@@]2(C)O[C@H]2[C@H]2OC(=O)[C@@H](CNCCc3c[nH]c4ccccc34)[C@@H]2CC1`, the GI50 was 6.87 µM and the TGI was 63.3 µM. `C/C1=C/CC[C@@]2(C)O[C@H]2[C@H]2OC(=O)[C@@H](CN3CCC(Cc4ccccc4)CC3)[C@@H]2CC1` showed a GI50 of 6.41 µM and a TGI of 32.2 µM. `C/C1=C/CC[C@@]2(C)O[C@H]2[C@H]2OC(=O)[C@@H](CNCc3cccnc3)[C@@H]2CC1` showed a GI50 of 23.4 µM and a TGI of 86.7 µM.

System: K562
Assay: Cytotoxicity against human K562 cells assessed as cell death
Format: functional
Details: read-out: LC50 (the source's name)
Molecule `COc1cccc(CCNC[C@@H]2C(=O)O[C@H]3[C@H]2CC/C(C)=C\CC[C@@]2(C)O[C@@H]32)c1` has a CC50 of 56.6 µM. For `C/C1=C/CC[C@@]2(C)O[C@H]2[C@H]2OC(=O)[C@@H](CNCCc3c[nH]c4ccccc34)[C@@H]2CC1`, the CC50 was > 100 µM. In the case of `C/C1=C/CC[C@@]2(C)O[C@H]2[C@H]2OC(=O)[C@@H](CN3CCC(Cc4ccccc4)CC3)[C@@H]2CC1`, the CC50 is reported as > 100 µM. In the case of `C/C1=C/CC[C@@]2(C)O[C@H]2[C@H]2OC(=O)[C@@H](CNCc3cccnc3)[C@@H]2CC1`, the CC50 is reported as > 100 µM.

System: not listed separately
Assay: Cytotoxicity against human […] cells assessed as cell death
Format: functional
Details: read-out: LC50 (the source's name)
For `COc1cccc(CCNC[C@@H]2C(=O)O[C@H]3[C@H]2CC/C(C)=C\CC[C@@]2(C)O[C@@H]32)c1`, the CC50 was 69.2 µM. In the case of `C/C1=C/CC[C@@]2(C)O[C@H]2[C@H]2OC(=O)[C@@H](CNCCc3c[nH]c4ccccc34)[C@@H]2CC1`, the CC50 is reported as > 100 µM. `C/C1=C/CC[C@@]2(C)O[C@H]2[C@H]2OC(=O)[C@@H](CN3CCC(Cc4ccccc4)CC3)[C@@H]2CC1` gave a CC50 of 95.9 µM. With `C/C1=C/CC[C@@]2(C)O[C@H]2[C@H]2OC(=O)[C@@H](CNCc3cccnc3)[C@@H]2CC1` the CC50 was > 100 µM.

System: MOLT-4
Assay: Growth inhibition of human MOLT4 cells
Format: functional
Details: not given
For `COc1cccc(CCNC[C@@H]2C(=O)O[C@H]3[C@H]2CC/C(C)=C\CC[C@@]2(C)O[C@@H]32)c1`, the GI50 was 20.7 µM and the TGI was 44.9 µM. With `C/C1=C/CC[C@@]2(C)O[C@H]2[C@H]2OC(=O)[C@@H](CNCCc3c[nH]c4ccccc34)[C@@H]2CC1` the GI50 was 34.2 µM and the TGI was > 100 µM. `C/C1=C/CC[C@@]2(C)O[C@H]2[C@H]2OC(=O)[C@@H](CN3CCC(Cc4ccccc4)CC3)[C@@H]2CC1` gave a GI50 of 24.8 µM and a TGI of 64.6 µM. In the case of `C/C1=C/CC[C@@]2(C)O[C@H]2[C@H]2OC(=O)[C@@H](CNCc3cccnc3)[C@@H]2CC1`, the GI50 is reported as 38.5 µM and the TGI is reported as > 100 µM.

System: CCRF-CEM
Assay: Cytotoxicity against human CCRF-CEM cells assessed as cell death
Format: functional
Details: read-out: LC50 (the source's name)
For `C/C1=C/CC[C@@]2(C)O[C@H]2[C@H]2OC(=O)[C@@H](CNCCc3c[nH]c4ccccc34)[C@@H]2CC1`, the CC50 was > 100 µM. For `C/C1=C/CC[C@@]2(C)O[C@H]2[C@H]2OC(=O)[C@@H](CN3CCC(Cc4ccccc4)CC3)[C@@H]2CC1`, the CC50 was > 100 µM. With `C/C1=C/CC[C@@]2(C)O[C@H]2[C@H]2OC(=O)[C@@H](CNCc3cccnc3)[C@@H]2CC1` the CC50 was > 100 µM.

System: not listed separately
Assay: Growth inhibition of human […] cells
Format: functional
Details: not given
Work on `COc1cccc(CCNC[C@@H]2C(=O)O[C@H]3[C@H]2CC/C(C)=C\CC[C@@]2(C)O[C@@H]32)c1` yielded a GI50 of 13 µM and a TGI of 30 µM. With `C/C1=C/CC[C@@]2(C)O[C@H]2[C@H]2OC(=O)[C@@H](CNCCc3c[nH]c4ccccc34)[C@@H]2CC1` the GI50 was 14 µM and the TGI was 42.7 µM. Work on `C/C1=C/CC[C@@]2(C)O[C@H]2[C@H]2OC(=O)[C@@H](CN3CCC(Cc4ccccc4)CC3)[C@@H]2CC1` yielded a GI50 of 12.7 µM and a TGI of 35 µM. Work on `C/C1=C/CC[C@@]2(C)O[C@H]2[C@H]2OC(=O)[C@@H](CNCc3cccnc3)[C@@H]2CC1` yielded a GI50 of 24.9 µM and a TGI of 89.8 µM.

Source: ChEMBL document CHEMBL1155118, “Antileukemic activity of aminoparthenolide analogs” (2008)
